Test results published in patent publication EP1199078A1, “ANALGESICS” (ONO PHARMACEUTICAL CO., LTD., priority 1999, dated 2000).
Where a name gives a salt, the structure may show the parent alone.

Key:
allodynia model in rats = settings: treatment of 50 µmol/kg, Neuroreport, Vol. 9, pp.367-372 (1998); cited from earlier work
[1] = tested on: Bennett hyperalgesia model in rats; assay: Hyperalgesia to thermostimulus in Bennett model in rats (plantar test), intrathecal injection; type: in vivo, Sprague-Dawley rats
Source text: (§1) Seven weeks old male Sprague-Dawley rats were used. According to the method of Yaksh et al. (J.Physiol. Behav. Vol.17, pp.1031-1036, 1976), the rat was mounted on the brain stereotaxis apparatus under sodium pentobarbital anesthesia and a polyethylene tube filled with saline was threaded about 3cm into intraspinal side through the cisternal incision.
A day after implantation, rats had no hindlimb paralysis were restrained in a prostrate position after induction of anesthetization with pentobarbital sodium. According to the method of Bennett and Xie et al. (Pain, Vol.33, pp.87-107, 1988), an incision of 2cm was cut along the skin of the femoral region of the right hindlimb, and the exposed sciatic nerve was constricted with 2 pieces of gut suture at 2 distal sites, and the incision was closed with a piece of silk suture. The left hindlimb was similarly operated on without performing any constriction of the sciatic nerve (sham-operated hindlimb).
Six days after the operation, the response latency to nociceptive thermostimulus was determined with the plantar test device, and rats with hyperalgesia were selected for the drug evaluation study on next day. […] By using a digital timer installed in the plantar testing device, the interval (response latency) from initiation of illumination to the time required for the animal to lift the hindlimb in an attempt to escape was measured. […]

formalin model in rats = assay: Formalin test in rats, intrathecal injection; type: in vivo, Sprague-Dawley rats; settings: for number of flinch: both doses, 2 or 20µg/10µl/rat intrathecally 10min prior to formalin, compared to vehicle treated group
Experimental: as §1, with “Eight” for “Seven”, “al.,” for “al. (J.Physiol. Behav. Vol.17, pp.1031-1036, 1976),”, “approximately” for “about”
A day after implantation, the rat had no hindlimb paralysis was administered 50µl of 5% formalin subcutaneously and was placed in the observational plastic cage immediately. Formalin injection time was regarded as 0min and for 1min every 5min until 60min, number of leg-up response (flinch) was counted. The compound of formula (IA-1) ((+)-trans-3-imino-5-methyl-7-chloro-2-azabicyclo[4.1.0]heptane Monohydrochloride) of the present invention was dissolved in saline, subsequently the dose of 2 or 20µg/10µl/rat was administered intrathecally via polyethylene tube 10min prior to the formalin injection.

Row | SMILES | effect on allodynia model (allodynia model in rats) | hyperalgesia to nociceptive thermostimulus ([1]; 0.2, 2 or 20µg/10µl/rat intrathecally 20min prior to plantar test, compared to vehicle treated rats) | analgetic effects ([1]; Bennett model in rats, summary statement) | number of flinch (formalin model in rats; first phase (0-10min after formalin injection)) | analgetic effects (formalin model in rats; formalin test in rats, summary statement) | number of flinch (formalin model in rats; second phase (10-60min after formalin injection))
1 | COC(=O)[C@@H](N)CCCNC(=N)N[N+](=O)[O-] [L-NAME] | showed effect |  |  |  |  | 
2 | C[C@H]1CC(=N)N[C@@H]2[C@H](Cl)[C@@H]21 [IA-1, (+)-trans-3-imino-5-methyl-7-chloro-2-azabicyclo[4.1.0]heptane Monohydrochloride] |  | improved | showed analgetic effects | decreased | showed analgetic effects | decreased
